Laboratory results as given in US7556957B2, “Coronavirus-like particles comprising functionally deleted genomes” (Stichting voor de Technische Wetenschappen, priority 2001, dated 2009).
Where no end group is shown, it is not given here.

Tests used:
[1] = tested on: MHV-EFLM infection of LR7 cells; assay: Virus-cell entry inhibition assay with luciferase-expressing MHV-EFLM; format: cell-based, mouse hepatitis virus (MHV) strain A59; details: peptide concentration 50 μM
Experimental: FIG. 11: Inhibition of MHV infection by the HR2 peptide. LR7 cells were inoculated with the virus MHV-EFLM in the presence of different concentrations of HR2 peptide or, as a control, a peptide corresponding to amino acids 1003-1048 of the viral S protein. After one hour of inoculation, cells were washed and incubated further in the absence of peptide. To evaluate the success of the infection, cells were analyzed at 4 hours post-infection for luciferase expression. In the figure luciferase activity is plotted against the different peptide concentrations used.
(§1) The potency of the HR2 peptide in inhibiting viral infection was determined using the recombinant MHV-EFLM expressing the firefly luciferase. Confluent monolayers of LR7 cells in 96-well plates were inoculated at 37° C. in DMEM at a multiplicity of infection of 5 for 1 hour in the presence of varying concentrations of peptide ranging from 0.4-50 μM. After 1 hour, cells were washed with DMEM and medium was replaced by peptide-free DMEM. At 5 hours post-infection cells were lysed for 15 minutes at RT in 50 μl Lysis buffer, according to the manufacturer's protocol (Luciferase Assay System, Promega). Upon mixing of 10 μl cell lysate with 40 μl substrate, luciferase activity was measured immediately using a Wallace Betaluminometer. […]

[2] = tested on: MHV-A59 spike mediated cell-cell fusion in LR7 cells; assay: Cell-cell fusion inhibition plaque assay; format: cell-based, mouse hepatitis virus (MHV) strain A59
Experimental: FIG. 12: Inhibition of cell-cell fusion by HR2 peptide. After inoculation of parallel cultures of LR7, cells with MHV-A59 cells were overlaid with agar medium containing different concentrations of HR2 peptide and plaques were counted the following day.
as §1

Sequence: GPIEGRDLSLDFEKLNVTLLDLTYEMNRIQDAIKKLNESYINLKE [HR2 peptide]
- inhibition of viral infection (entry) [1]: inhibited virtually completely
- formation of plaques (cell-cell fusion) ([2]; 0.08 μM HR2 peptide in agar overlay): only tiny plaques
- formation of plaques (cell-cell fusion) ([2]; HR2 peptide in agar overlay at concentrations of up to 0.4 μM): completely abolished
